This is an account of results in patent US4405717A, “Recovery of acetic acid from a fermentation broth” (priority 1981, dated 1983).

The conditions of series [1]: for dissolution of the amine: aqueous calcium acetate solution, carbon dioxide added. Here is the method: In carrying out the process of this invention, a molar equivalent of a water-soluble tertiary amine carbonate is added to the calcium acetate solution. The tertiary amine carbonate used in the process can be generated by the addition of carbon dioxide to a solution or suspension of the tertiary amine in water. It is most convenient to generate the tertiary amine carbonate in situ by first adding a molar equivalent of the tertiary amine to the calcium acetate solution. Then carbon dioxide is added to the mixture to generate the tertiary amine carbonate directly in the calcium acetate solution. The addition of the carbon dioxide is carried out by any convenient means. Either solid or gaseous carbon dioxide is added to the solution at atmospheric pressure or at higher pressures in a pressure vessel.
To a solution of 20 g of acetic acid and 400 ml of water was added 16 g of calcium carbonate. […] To this was added 62 g of tributylamine.

Series [2] in a line: Thermal decomposition (dissociation) of trialkylammonium acetates. The series is classed as physicochemical. Here is the method:
In the final step of the process, the trialkylammonium acetate is heated to cause dissociation of the acetate with liberation of acetic acid and the amine. The temperature at which the acetate decomposes depends somewhat on the tertiary amine used. When tributylamine is employed, the acetate decomposes when held in a bath in the range of about 170°-190° C. with distillation of the acetic acid in a relatively pure form. The residue after distillation of the acid is tributylamine which can be recycled for use in the extraction process.
The syrup obtained in Example 1 was placed in a flask fitted with a 7-cm Vigreux column attached to a water-cooled condenser. The flask was heated in an oil bath to 180° C. at which temperature decomposition of the acetate occurred. The yield of acetic acid distilling at 115°-118° C. was 18.3 g which represents a 91.5% recovery of the acetic acid present in the solution.
When the process of Example 2 was repeated with the syrups containing trimethylammonium acetate, triethylammonium acetate and tripropylammonium acetate, the products that were obtained were either azeotropes or mixtures of the tertiary amine and acetic acid.

A short description of series [3]: Extraction of trialkylammonium acetates: distribution coefficient (KD) between water and solvents. The format is physicochemical. Particulars: conclusion from Table I. Here is the method:
In one embodiment of this invention, the trialkylammonium acetate is extracted from the solution by means of an organic solvent. Polar solvents, such as esters, alcohols, ketones, ethers or chlorinated hydrocarbons can be used. The solvents should be insoluble or sparingly soluble in water and be good extractants for the acetate. This extraction ability is determined by measuring the amount of acetic acid in each phase when an acetate solution is extracted with an equal volume of extractant. The extraction ability is expressed as a Distribution Coefficient (KD) which is defined by the formula: [formula] The solvent should have a KD greater than about 0.4 and preferably greater than about 1.
The efficiency with which trialkylammonium acetates could be extracted from water solutions with various solvents was measured by determination of the KD of the salts between water and the solvents according to the following procedure:
A mixture of 50 ml of a 5% aqueous solution of the acetate formed by the procedure of Example 1 and 50 ml of solvent in a 250-ml Erlenmeyer flask was shaken in a wrist-action shaker for 2 hours at room temperature. The mixture was transferred to a separatory funnel where it was allowed to stand for an additional hour before the phases were separated, weighed and analyzed. […]

Like-named read-outs stand apart in the source and are kept apart here.

Regarding `CCCCCCN(CCCCCC)CCCCCC` [trihexylamine], in series [1], the “water solubility of the amine carbonate” value is “do not form carbonates which are sufficiently soluble in water” and the “dissolution of the amine” value is on record as “the amine did not dissolve”.
For the compound `CC(C)CCCCCN(CCCCCC(C)C)CCCCCC(C)C` [triisooctylamine], the “dissolution of the amine” value in series [1] was “the amine did not dissolve”.
Regarding `CCCCCCCCN(CCCCCCCC)CCCCCCCC` [trioctylamine], the “water solubility of the amine carbonate” value in series [1] is listed as “do not form carbonates which are sufficiently soluble in water”.
As for `CCCCCN(CCCCC)CCCCC` [triamylamine], the “dissolution of the amine” value in series [1] is listed as “the amine did not dissolve”.
Consider `CCCCCCCCCCCCN(C)C` [dimethyldodecylamine, N,N-dimethyldodecylamine], for which the “behaviour of the salt on distillation” value in series [2] (salts prepared from long-chain amines) is “distillation was accompanied by unknown side-reactions”.
Take `CCCCN(CCCC)CCCC` [tributylamine]: the “dissolution of the amine” value in series [1] (listed as Tributylamine) is given as “dissolves readily”.
As for `CN(C)c1ccncc1` [4-dimethylaminopyridine], the “dissolution of the amine” value in series [1] is “all of the amine went into solution”.
Consider `CN(C1CCCCC1)C1CCCCC1` [dicyclohexylmethylamine], for which, in series [1], the “dissolution of the amine” value is given as “all of the amine went into solution”.
For `CN(C)C` [trimethylamine], the “water solubility of the amine carbonate” value in series [1] (general statement) is reported as “form carbonates which are water soluble”.
Regarding `CC(=O)O.CCCCN(CCCC)CCCC` [Tributylammonium Acetate, tributylammonium acetate], in series [2] (heated in an oil bath, Example 2), the “decomposition temperature of the acetate” value is 180 °C. Also, the “extraction from water with the solvents (in words)” value in series [3] is “much more efficient than any of the other combinations”.
For `CCCN(CCC)CCC` [tripropylamine], in series [1], the “water solubility of the amine carbonate” value was “form carbonates which are water soluble” and the “dissolution of the amine” value is listed as “all of the amine went into solution”.
